Measurements reported in BindingDB's records for doi:10.1016/j.chembiol.2004.02.012 (Triad Therapeutics, 2004).
pKi: −log10 of the molar value.

Experiments:
Assay in all cases: Steady-State Inhibition Assay
Conditions in all cases: pH 7.4
[1] = target: T1, 1-deoxy-D-xylulose 5-phosphate reductoisomerase (Escherichia coli (strain K12), UniProt P45568)
T1 sequence (P45568 whole entry): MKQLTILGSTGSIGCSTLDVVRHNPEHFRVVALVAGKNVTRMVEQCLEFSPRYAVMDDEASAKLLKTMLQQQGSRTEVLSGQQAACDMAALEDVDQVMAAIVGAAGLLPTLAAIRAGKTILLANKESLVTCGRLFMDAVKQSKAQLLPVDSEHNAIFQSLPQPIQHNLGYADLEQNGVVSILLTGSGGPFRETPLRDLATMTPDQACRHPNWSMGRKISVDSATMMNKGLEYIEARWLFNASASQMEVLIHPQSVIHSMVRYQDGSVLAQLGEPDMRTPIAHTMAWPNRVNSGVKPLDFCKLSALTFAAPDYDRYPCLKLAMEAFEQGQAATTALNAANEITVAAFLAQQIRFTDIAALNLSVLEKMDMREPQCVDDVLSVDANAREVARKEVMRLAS
Description: (§1) All reactions were monitored spectrophotometrically at 340 nm by using initial rates from the first 5% of reaction.

[2] = target: 4-hydroxy-tetrahydrodipicolinate reductase (Escherichia coli (strain K12), UniProt P04036)
Sequence of 4-hydroxy-tetrahydrodipicolinate reductase (P04036 whole entry): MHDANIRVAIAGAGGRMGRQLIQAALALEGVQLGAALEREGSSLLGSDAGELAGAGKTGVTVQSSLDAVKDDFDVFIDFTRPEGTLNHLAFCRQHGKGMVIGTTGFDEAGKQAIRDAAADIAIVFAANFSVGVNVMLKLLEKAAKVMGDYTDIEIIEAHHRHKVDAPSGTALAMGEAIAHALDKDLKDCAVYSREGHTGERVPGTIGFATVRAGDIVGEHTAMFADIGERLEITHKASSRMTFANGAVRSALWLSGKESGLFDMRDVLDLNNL
Description: as §1

[3] = target: T2, Quinone-dependent D-lactate dehydrogenase (Escherichia coli (strain K12), UniProt P06149)
T2 sequence (P06149 whole entry): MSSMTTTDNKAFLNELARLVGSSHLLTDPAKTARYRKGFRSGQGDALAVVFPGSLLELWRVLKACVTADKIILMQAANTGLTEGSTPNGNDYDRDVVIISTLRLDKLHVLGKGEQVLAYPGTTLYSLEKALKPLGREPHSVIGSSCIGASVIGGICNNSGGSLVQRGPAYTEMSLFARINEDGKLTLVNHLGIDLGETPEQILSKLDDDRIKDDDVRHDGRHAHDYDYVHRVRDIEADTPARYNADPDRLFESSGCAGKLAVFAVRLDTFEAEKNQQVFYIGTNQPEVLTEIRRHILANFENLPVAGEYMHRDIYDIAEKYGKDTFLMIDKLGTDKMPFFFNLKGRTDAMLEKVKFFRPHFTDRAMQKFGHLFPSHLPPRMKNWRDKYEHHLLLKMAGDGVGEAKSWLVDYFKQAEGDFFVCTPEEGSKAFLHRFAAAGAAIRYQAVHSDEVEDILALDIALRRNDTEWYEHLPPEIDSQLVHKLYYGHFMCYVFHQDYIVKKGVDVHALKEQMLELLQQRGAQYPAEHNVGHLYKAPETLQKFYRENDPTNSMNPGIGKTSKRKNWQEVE
Description: as §1

Row | Structure (SMILES) | pKi [1] | pKi [2] | pKi [3]
1 | O=C(O)CN1C(=O)/C(=C/c2ccc(O)c(O)c2)SC1=S [Bi-ligand, 1] | < 4.30 | 7.59 | 4.26
2 | O=C(CCCCN1C(=O)/C(=C/c2ccc(O)c(O)c2)SC1=S)NCc1ccc(Cl)c(Cl)c1 [Bi-ligand, 2] | 5.00 | < 4.30 | 7.38
3 | Cc1ccc(Oc2ccc(NC(=O)CN3C(=O)/C(=C/c4ccc(O)c(O)c4)SC3=S)cc2)cc1 [Bi-ligand, 3] | 6.69 | < 4.60 | 4.92
4 | O=C(CN1C(=O)/C(=C/c2ccc(O)c(O)c2)SC1=S)NCCSc1cc(C(=O)O)nc(C(=O)O)c1 [Bi-ligand, 4] | 5.10 | 7.00 | 6.21
